Source: patent publication US7763281B2, “Antihypertensive peptide and use thereof” (Da-Yeh University, priority 2007, dated 2010)
Like-named read-outs stand apart in the source and are kept apart here. Ends that are not written are not given here.

Assays:
[1] = system: spontaneously hypertensive rats (SHRs); experiment: Change of SBP and DBP in SHRs by tail-cuff method after single oral administration; type: in vivo, rat; details: single oral dose 1 mg/kg BW
Method: Therefore, the antihypertensive activity of the aforementioned supernatant powder of the fermented dairy product were measured in SHRs and normotensive rats (Wistar-Kyoto rats, WKYs) to evaluate its potential applications to functional food for preventing hypertension. The male SHRs and male WKYs used in the present and following examples were purchased from National Laboratory Animal Center (Taipei, Taiwan) and fed with laboratory chow (Rodent laboratory chow 5001, Purina Co., USA). Blood pressures including SBP and DBP of 8- to 18-wk-old SHRs (body weight, 330-360 g) and 8- to 18-wk-old WKYs (body weight, 350-380 g) were measured by the tail-cuff method employing a tail-cuff detection system (Softron BP16; Softron, Tokyo, Japan). The antihypertensive activities of the test samples were evaluated by measuring the changes in SBP and DBP of SHRs and WKYs during 0-10 h after oral administration of respective samples.

[2] = system: spontaneously hypertensive rats (SHRs); details: cited from earlier work
[3] = type: in vitro ADME
Method: Briefly, the peptide was digested with a pepsin solution (pH 2.5) (EC 3.4.23.1; 1:10000; Sigma, USA) for 1.5 h at 37° C., followed by digestion with Corolase PP (pH 7.5) (pancreatic protease; Rohm, Darmstadt, German) for 2.5 h at 37° C. To remove the enzyme added, the digested peptide solution was filtered through a 3 kDa cut-off centrifugal filter (Microcon YM-3, 3 kDa NMWL, Millipore Co., USA) by centrifugation at 1,000×g for 10 min. The filtrate was then used in the analysis for peptide fragments by MALDI-TOF-MS (matrix-assisted laser desorption ionization-time of flight mass spectrometry).

## Val-Pro-Pro (VPP; Peptide derived from casein) [tripeptide derived from β-casein, synthesized and tested as positive control]
[1]; at 4 h
  maximal DBP decrease: 18.0±2.1 mmHg
  maximal SBP decrease: 26.3±3.2 mmHg
[2]; dose 1.6 mg/kg BW, at 6 h after oral administration (Nakamura et al., 1995)
  decrease of SBP: 20 mmHg

## KVLPVPQ [known peptide from casein hydrolysate (Maeno et al., 1996), synthetic comparator]
[1]; at 3 h
  maximal decrease in SBP: 29.2±4.0 mmHg
[1]; at 4 h
  maximal DBP decrease: 14.4±3.2 mmHg
[2]; single oral administration of 2 mg/kg BW, at 6 h (Maeno et al., 1996)
  decrease of SBP: 31.5±5.6 mmHg

## KVLPVP [known peptide from casein hydrolysate (Maeno et al., 1996), synthetic comparator]
[1]; at 2 h
  maximal decrease in SBP: 27.8±3.3 mmHg
[1]; at 5 h
  maximal decrease in DBP: 17.5±4.2 mmHg

## VLSLSQPKVLPVPQKAVPQ [Val-Leu-Ser-Leu-Ser-Gln-Pro-Lys-Val-Leu-Pro-Val-Pro-Gln-Lys-Ala-Val-Pro-Gln]
[3]
  peptide fragments after simulated gastro-intestinal digestion: did not contain Lys-Val-Leu-Pro-Val-Pro (SEQ ID NO: 3) or Lys-Val-Leu-Pro-Val-Pro-Gln (SEQ ID NO: 4)
